According to patent publication US20080262031A1, “4-Aminoquinoline Derivatives as Antimalarials” (CTG PHARMA S.R.L., priority 2005, published 2008):
Converted amounts (≈) assume the structure as drawn. Read-outs that look alike come from different tables or passages of the source.

Legend:
[1] = test system: chloroquine-sensitive (CQ-S) Plasmodium falciparum strain D10; test: in vitro antimalarial activity on chloroquine-sensitive strain D10; assay type: cell-based
[2] = test system: chloroquine-resistant (CQ-R) Plasmodium falciparum strain W2; test: in vitro antimalarial activity on chloroquine-resistant strain W2; assay type: cell-based
[3] = P. falciparum strain D10, chloroquine-sensitive, n = 4 ± SD, read-out: D10 (CQ-S) IC50
[4] = P. falciparum strain W2, chloroquine-resistant, n = 4 ± SD, read-out: W2 (CQ-R) IC50

| Compound | IC50 [1, 3] [µg/mL] | IC50 [2, 4] [µg/mL] | IC50 ([1]; D10, read-out: D10 (CQ-S) IC50) [µg/mL] | IC50 ([2]; W2, read-out: W2 (CQ-R) IC50) [µg/mL] |
| --- | --- | --- | --- | --- |
| Oc1cc(Nc2ccnc3cc(Cl)ccc23)ccc1CNC[C@@H]1CCCN2CCCC[C@H]12 [Example 3] | 0.0103 ± 0.0019 (≈ 0.0228 µM) | 0.0114 ± 0.0021 (≈ 0.0253 µM) |  |  |
| Clc1ccc2c(NCCC34CCCN3CCC4)ccnc2c1 [Example 1, N-(7-chloro-quinolin-4-yl)-2-(tetrahydropyrrolizin-7a-yl)-ethylamine] | 0.0017 ± 0.0014 (≈ 0.00538 µM) | 0.0173 ± 0.0024 (≈ 0.0548 µM) |  |  |
| Oc1cc(Nc2ccnc3cc(Cl)ccc23)ccc1CNCCC12CCCN1CCC2 [Example 4] | 0.0172 ± 0.0019 (≈ 0.0394 µM) | < 0.08 |  |  |
| CCN(CC)CCCC(C)Nc1ccnc2cc(Cl)ccc12 (stereo not shown) [Chloroquine, chloroquine, reference compound] |  |  | 0.0097 ± 0.0036 (≈ 0.0303 µM) | 0.17 ± 0.0413 (≈ 0.532 µM) |
| Clc1ccc2c(NCC34CCCN3CCC4)ccnc2c1 [Example 2, N-(7-chloro-quinolin-4-yl)-(tetrahydropyrrolizin-7a-yl)-methylamine] | 0.0092 ± 0.0022 (≈ 0.0305 µM) | 0.0087 ± 0.0035 (≈ 0.0288 µM) |  |  |
